Measured values published in the NIST ThermoML archive (doi:10.1016/j.jct.2016.03.034).

Columns and labels:
[1] = 101.33 kPa, Liquid; for mass density: Vibrating tube method; for viscosity: Capillary tube (Ostwald / Ubbelohde) method
[2] = xn = mol fraction of the nth substance listed; settings: 100 kPa, Liquid, x1 = 1; for viscosity: Capillary tube (Ostwald / Ubbelohde) method; for mass density: Vibrating tube method

CCCCCCCCn1cc[n+](C)c1.O=S(=O)([N-]S(=O)(=O)C(F)(F)F)C(F)(F)F
[1]
Settings	mass density [kg/m3]	viscosity [mPa·s]
273.15 K	1340.42	–
283.15 K	1331.26	208.88
293.15 K	1324.82	114.86
298.15 K	1320.47	88.59
303.15 K	1316.05	69.08
308.15 K	1311.64	55.38
313.15 K	1307.24	45.03
318.15 K	1302.85	37.25
323.15 K	1298.47	30.83

CCCCCC[n+]1ccn(C)c1.O=S(=O)([N-]S(=O)(=O)C(F)(F)F)C(F)(F)F
[1]
Settings	mass density [kg/m3]	viscosity [mPa·s]
273.15 K	1395.43	279.26
278.15 K	1390.66	–
283.15 K	1386.02	148.8
288.15 K	1381.44	–
293.15 K	1376.84	87.29
298.15 K	1371.81	70.52
303.15 K	1367.68	55.92
308.15 K	1363.11	47.46
313.15 K	1357.51	37.22
318.15 K	1352.62	31.35
323.15 K	1349.46	25.95

CCn1cc[n+](C)c1.O=S(=O)([N-]S(=O)(=O)C(F)(F)F)C(F)(F)F
[1]
Settings	mass density [kg/m3]	viscosity [mPa·s]
293.15 K	1523.44	37.8
298.15 K	1518.3	31.79
303.15 K	1513.11	26.84
308.15 K	1507.9	22.9
313.15 K	1502.68	19.75
318.15 K	1497.48	17.05
323.15 K	1492.24	15.02

CCCCCCCCn1cc[n+](C)c1.O=S(=O)([N-]S(=O)(=O)C(F)(F)F)C(F)(F)F + O=C1CCCO1
[2]
Settings	mass density [kg/m3]	viscosity [mPa·s]
293.15 K	1324.82	114.86
298.15 K	1320.47	88.59
303.15 K	1316.05	69.08
308.15 K	1311.64	56.43
313.15 K	1307.24	45.03
318.15 K	1302.85	37.25
323.15 K	1298.47	30.83

CCCCCC[n+]1ccn(C)c1.O=S(=O)([N-]S(=O)(=O)C(F)(F)F)C(F)(F)F + O=C1CCCO1
[2]
Settings	mass density [kg/m3]	viscosity [mPa·s]
293.15 K	1376.84	87.29
298.15 K	1371.81	70.52
303.15 K	1367.68	55.92
308.15 K	1363.11	47.46
313.15 K	1357.51	37.22
318.15 K	1352.62	31.35
323.15 K	1349.46	25.95

CCn1cc[n+](C)c1.O=S(=O)([N-]S(=O)(=O)C(F)(F)F)C(F)(F)F + O=C1CCCO1
[2]
Settings	mass density [kg/m3]	viscosity [mPa·s]
293.15 K	1523.44	37.8
298.15 K	1518.3	31.79
303.15 K	1513.11	26.84
308.15 K	1507.9	22.9
313.15 K	1502.68	19.75
318.15 K	1497.48	17.05
323.15 K	1492.24	15.02
